Measurements reported in PubChem BioAssay (NCI).
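Results reflect a 48-hour exposure of cells in 96-well plates to compound at five concentrations. GI50: concentration for 50% inhibition of growth. TGI is the concentration that stops growth completely.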

Assays:
Test in all cases: NCI tumour cell line growth inhibition, 48 h
[1] = system: SW-620 colon
[2] = system: HOP-62 NSCLC
[3] = system: MDA-MB-468 breast
[4] = system: MALME-3M melanoma
[5] = system: CCRF-CEM leukemia
[6] = system: K-562 leukemia
[7] = system: HT29 colon
[8] = system: MDA-MB-435
[9] = system: SR leukemia
[10] = system: HCT-15 colon
[11] = system: KM12 colon
[12] = system: HCT-116 colon
[13] = system: HOP-92 NSCLC
[14] = system: NCI-H23 lung
[15] = system: HL-60(TB) leukemia
[16] = system: SK-MEL-28 melanoma
[17] = system: T-47D breast
[18] = system: SF-268 CNS
[19] = system: A549 NSCLC
[20] = system: SK-OV-3 ovarian
[21] = system: SK-MEL-2 melanoma
[22] = system: PC-3 prostate
[23] = system: RPMI-8226 leukemia
[24] = system: SN12C renal
[25] = system: SNB-75 CNS
[26] = system: IGROV1 ovarian
[27] = system: BT-549 breast
[28] = system: M14 melanoma
[29] = system: CAKI-1 renal
[30] = system: OVCAR-5 ovarian
[31] = system: A498 renal
[32] = system: NCI-H226 lung
[33] = system: COLO 205 colon
[34] = system: OVCAR-4 ovarian
[35] = system: U251 CNS
[36] = system: SNB-19 CNS
[37] = system: MOLT-4 leukemia
[38] = system: UACC-62 melanoma
[39] = system: UO-31 renal
[40] = system: LOX IMVI melanoma
[41] = system: HCC-2998 colon
[42] = system: SK-MEL-5 melanoma
[43] = system: SF-539 CNS
[44] = system: EKVX NSCLC
[45] = system: NCI-H522 lung
[46] = system: DU-145 prostate
[47] = system: ACHN renal
[48] = system: OVCAR-8 ovarian
[49] = system: 786-0 renal
[50] = system: RXF 393 renal
[51] = system: MDA-MB-231 breast
[52] = system: NCI-H460 lung
[53] = system: HS 578T breast
[54] = system: UACC-257 melanoma
[55] = system: OVCAR-3 ovarian
[56] = system: MCF7 breast
[57] = system: TK-10 renal
[58] = system: SF-295 CNS

`CC1CCCCN1CCCNC(=O)N/C(N)=N/c1nc2ccccc2s1` (stereo unspecified) showed a GI50 [1] of 16.2 µM, a TGI [1] of 34.1 µM and a GI50 [2] of 21.3 µM. For the same molecule, the TGI [2] was greater than 100 µM, the GI50 [3] was 14.7 µM and the TGI [3] was 30.7 µM. It also gave a GI50 [4] of 13.9 µM, a TGI [4] of 27.1 µM and a GI50 [5] of 19.6 µM. It also gave a TGI [5] of 57.8 µM, a GI50 [6] of 15.8 µM and a TGI [6] of 46.7 µM. It also gave a GI50 [7] of 15.3 µM, a TGI [7] of 46.2 µM and a GI50 [8] of 16.2 µM. The TGI [8] was 30.2 µM, the GI50 [9] was 18.7 µM and the TGI [9] was 58.5 µM. The GI50 [10] was 16.4 µM, the TGI [10] was 33.4 µM and the GI50 [11] was 27 µM. The TGI [11] was greater than 100 µM, the GI50 [12] was 15 µM and the TGI [12] was 28.9 µM. For the same molecule, the GI50 [13] was 4.96 µM, the TGI [13] was 41.6 µM and the GI50 [14] was 27 µM. For the same molecule, the TGI [14] was greater than 100 µM, the GI50 [15] was 11.5 µM and the TGI [15] was 33.8 µM. It also gave a GI50 [16] of 16.6 µM, a TGI [16] of 30.5 µM and a GI50 [17] of 15.4 µM. The TGI [17] was 39.6 µM, the GI50 [18] was 21.1 µM and the TGI [18] was 79.8 µM. The GI50 [19] was 21 µM, the TGI [19] was 57.7 µM and the GI50 [20] was 19.7 µM. For the same molecule, the TGI [20] was 89.1 µM, the GI50 [21] was 16 µM and the TGI [21] was 31.1 µM. The GI50 [22] was 20 µM, the TGI [22] was greater than 100 µM and the GI50 [23] was 17.4 µM. The TGI [23] was 51.3 µM, the GI50 [24] was 36.7 µM and the TGI [24] was greater than 100 µM. The GI50 [25] was 7.4 µM, the TGI [25] was 55.2 µM and the GI50 [26] was 21.3 µM. For the same molecule, the TGI [26] was 76.7 µM, the GI50 [27] was 16.5 µM and the TGI [27] was 59.3 µM. For the same molecule, the GI50 [28] was 15.8 µM, the TGI [28] was 30.5 µM and the GI50 [29] was 13.3 µM. It also gave a TGI [29] of 28 µM, a GI50 [30] of 22.5 µM and a TGI [30] of 68.5 µM. It also gave a GI50 [31] of 17 µM, a TGI [31] of 38.2 µM and a GI50 [32] of 27.7 µM. It also gave a TGI [32] greater than 100 µM, a GI50 [33] of 14 µM and a TGI [33] of 28.2 µM. The GI50 [34] was 63.1 µM, the TGI [34] was greater than 100 µM and the GI50 [35] was 17 µM. The TGI [35] was 39.3 µM, the GI50 [36] was 29.7 µM and the TGI [36] was greater than 100 µM. It also gave a GI50 [37] of 12.1 µM, a TGI [37] of 51.9 µM and a GI50 [38] of 16.8 µM. The TGI [38] was 31.7 µM, the GI50 [39] was 10.2 µM and the TGI [39] was 25.2 µM. For the same molecule, the GI50 [40] was 13.9 µM, the TGI [40] was 27.7 µM and the GI50 [41] was 15.2 µM. For the same molecule, the TGI [41] was 29.2 µM, the GI50 [42] was 13.3 µM and the TGI [42] was 26.2 µM. For the same molecule, the GI50 [43] was 15.8 µM, the TGI [43] was 30.1 µM and the GI50 [44] was 27.9 µM. The TGI [44] was greater than 100 µM, the GI50 [45] was 18.3 µM and the TGI [45] was 43.8 µM. It also gave a GI50 [46] of 46.7 µM, a TGI [46] greater than 100 µM and a GI50 [47] of 19.1 µM. For the same molecule, the TGI [47] was 48.1 µM, the GI50 [48] was 27.5 µM and the TGI [48] was greater than 100 µM. It also gave a GI50 [49] of 17.2 µM, a TGI [49] of 32.7 µM and a GI50 [50] of 10.2 µM. The TGI [50] was 33.3 µM, the GI50 [51] was 14.8 µM and the TGI [51] was 40.7 µM. The GI50 [52] was 19.1 µM, the TGI [52] was 40.6 µM and the GI50 [53] was 15.1 µM. For the same molecule, the TGI [53] was 50.1 µM, the GI50 [54] was 15.8 µM and the TGI [54] was 30.7 µM. The GI50 [55] was 24 µM, the TGI [55] was greater than 100 µM and the GI50 [56] was 15 µM. It also gave a TGI [56] of 31.7 µM, a GI50 [57] of 20.8 µM and a TGI [57] of 46 µM. It also gave a GI50 [58] of 16 µM and a TGI [58] of 30.7 µM.
